Data taken from article PMC7350407, “Kinetic Modifications of C4 PEPC Are Qualitatively Convergent, but Larger in Panicum Than in Flaveria” (Frontiers in Plant Science, 2020).
Like-named read-outs stand apart in the source and are kept apart here. Values belong to the molecule of their own block, whether it stands above or below them.

What was measured:
[1] = target: T1, Panicum pygmaeum (C3) PEPC; test: malate dehydrogenase-coupled NADH assay, secondary plot of kcat/Km(HCO3-) against PEP; assay type: biochemical; conditions: substrate constant at limiting bicarbonate, not inhibition; pH 8.0, 25 °C, 10 mM MgCl2
T1 construct: gene ppc-1P3; full-length, 969 codons, codon-optimised synthetic gene, N-terminal His6 tag kept, E. coli BL21(DE3)
Description: malate dehydrogenase-coupled NADH assay, secondary plot of kcat/Km(HCO3-) against PEP on Panicum pygmaeum (C3) PEPC

[2] = target: T2, Panicum queenslandicum (C4) PEPC; test: as above; assay type: biochemical; conditions: substrate constant at limiting bicarbonate, not inhibition; pH 8.0, 25 °C, 10 mM MgCl2
T2 construct: gene ppc-1P3; full-length, 962 codons, N-terminal His6 tag kept, E. coli BL21(DE3), cloned from leaf cDNA
Description: malate dehydrogenase-coupled NADH assay, secondary plot of kcat/Km(HCO3-) against PEP on Panicum queenslandicum (C4) PEPC

[3] = target: T3, Flaveria pringlei (C3) PEPC (Flaveria pringlei, UniProt Q01647); test: as above; assay type: biochemical; conditions: substrate constant at limiting bicarbonate, not inhibition; pH 8.0, 25 °C, 10 mM MgCl2
T3 construct: gene PPCA1; full-length, 967 codons, N-terminal His6 tag kept (pET-1B His6 TEV LIC), E. coli BL21(DE3)
Description: malate dehydrogenase-coupled NADH assay, secondary plot of kcat/Km(HCO3-) against PEP on Flaveria pringlei (C3) PEPC

[4] = tested on: T2, Panicum queenslandicum (C4) PEPC; test: malate dehydrogenase-coupled NADH assay, […] nm, secondary plot; assay type: biochemical; conditions: co-substrate bicarbonate; pH 8.0, 25 °C, 10 mM MgCl2; read-out: KmPEP
[5] = target: T4, Flaveria trinervia (C4) PEPC (Flaveria trinervia, UniProt P30694); test: malate dehydrogenase-coupled NADH assay, secondary plot of kcat/Km(HCO3-) against PEP; assay type: biochemical; conditions: substrate constant at limiting bicarbonate, not inhibition; pH 8.0, 25 °C, 10 mM MgCl2
T4 construct: gene PPCA; full-length, 967 codons, N-terminal His6 tag kept (pET-1B His6 TEV LIC), E. coli BL21(DE3)
Description: malate dehydrogenase-coupled NADH assay, secondary plot of kcat/Km(HCO3-) against PEP on Flaveria trinervia (C4) PEPC

[6] = tested on: T1, Panicum pygmaeum (C3) PEPC; test: malate dehydrogenase-coupled NADH assay, […] nm, secondary plot; assay type: biochemical; conditions: co-substrate bicarbonate; pH 8.0, 25 °C, 10 mM MgCl2; read-out: KmPEP
[7] = target: T1, Panicum pygmaeum (C3) PEPC; test: malate dehydrogenase-coupled NADH assay, […] nm; assay type: biochemical; conditions: pH 8.0, 25 °C, 10 mM MgCl2, 5 mM KHCO3, PEP varied
[8] = target: T2, Panicum queenslandicum (C4) PEPC; test: malate dehydrogenase-coupled NADH assay, […] nm; assay type: biochemical; conditions: pH 8.0, 25 °C, 10 mM MgCl2, 5 mM KHCO3, PEP varied
[9] = target: T3, Flaveria pringlei (C3) PEPC; test: malate dehydrogenase-coupled NADH assay, […] nm; assay type: biochemical
[10] = target: T4, Flaveria trinervia (C4) PEPC; test: malate dehydrogenase-coupled NADH assay, […] nm; assay type: biochemical
[11] = tested on: T5, Panicum pygmaeum (C3) PEPC; conditions: read-out: KmHCO3-; co-substrate PEP; pH 8.0, 25 °C, 10 mM MgCl2
T5 construct: gene ppc-1P3

[12] = tested on: T6, Panicum queenslandicum (C4) PEPC; conditions: read-out: KmHCO3-; co-substrate PEP; pH 8.0, 25 °C, 10 mM MgCl2
T6 construct: gene ppc-1P3

purified protein [13] = substrate: O=C(O)O; test: purified protein; conditions: co-substrate PEP, pH 8.0, 25 °C, 10 mM MgCl2
purified protein [14] = substrate: C=C(OP(=O)(O)O)C(=O)O; test: purified protein; assay type: biochemical, Flaveria trinervia; conditions: co-substrate bicarbonate, pH 8.0, 25 °C, 10 mM MgCl2
purified protein [15] = substrate: C=C(OP(=O)(O)O)C(=O)O; test: purified protein; assay type: biochemical, Flaveria pringlei; conditions: co-substrate bicarbonate, pH 8.0, 25 °C, 10 mM MgCl2
[16] = competitive, read-out: KicAspartate
[17] = mixed inhibitor, competitive constant (limiting PEP), read-out: KicMalate

KiPEP [1]: 0.05 ± 0.01 mM
KiPEP [2]: 4.39 ± 1.10 mM
KiPEP [3]: 0.02 ± 0.01 mM
Km [4]: 4170 ± 300 µM
KiPEP [5]: 0.40 ± 0.13 mM
Km [6]: 170 ± 50 µM
Molecule: C=C(OP(=O)(O)O)C(=O)O [PEP]

Ki [7, 16]: 2.27 ± 0.02 mM
Ki [8, 16]: 49.4 ± 7.86 mM
Ki ([9]; read-out: KicAspartate): 4.13 ± 0.6 mM
Ki ([10]; read-out: KicAspartate): 40 ± 6.49 mM
Molecule: N[C@@H](CC(=O)O)C(=O)O [aspartate]

Km [11]: 120 ± 20 µM
Km [12]: 40 ± 20 µM
Molecule: O=C(O)O [bicarbonate]

Ki [7, 17]: 0.52 ± 0.22 mM
Ki [8, 17]: 7.51 ± 1.17 mM
Ki ([9]; read-out: KicMalate): 2.14 ± 0.62 mM
Ki ([10]; read-out: KicMalate): 11 ± 1.55 mM
Molecule: O=C(O)C[C@H](O)C(=O)O [malate]

B1: Flaveria trinervia (C4) PEPC (Flaveria trinervia) (protein)
chain: MANRNVEKLASIDAQLRLLVPGKVSEDDKLVEYDALLLDKFLDILQDLHGEDLKEAVQQCYELSAEYEGKHDPKKLEELGSLLTSLDTGDSIVIAKAFSHMLNLANLAEELQIAYRRRIKLKSGDFADEANATTESDIEETFKRLVHKLNKSPEEVFDALKNQTVELVLTAHPTQSVRRSLLQKHGRIRNCLAQLYAKDITPDDKQELDEALHREIQAAFRTDEIRRTPPTPQDEMRAGMSYFHETIWKGVPKFLRRVDTALKNIGINERFPYNAPLIQFSSWMGGDRDGNPRVTPEVTRDVCLLARMMTSNMYFSQIEDLMIEMSMWRCNSELRVRAEELYRTARKDVKHYIEFWKRIPPNQPYRVILGDVRDKLYNTRERSRHLLVDGKSDIPDEAVYTNVEQLLEPLELCYRSLCDCGDHVIADGSLLDFLRQVSTFGLSLVKLDIRQESDRHTEVLDAITQHLGIGSYREWSEEKRQEWLLAELSGKRPLIGPDLPKTEEVKDCLDTFKVLAELPSDCFGAYIISMATSTSDVLAVELLQREYHIKHPLRVVPLFEKLADLEAAPAAMTRLFSMDWYRNRIDGKQEVMIGYSDSGKDAGRFSAAWQLYKTQEQIVKIAKEFGVKLVIFHGRGGTVGRGGGPTHLALLSQPPDTINGSLRVTVQGEVIEQSFGEEHLCFRTLQRFCAATLEHGMNPPISPRPEWRELMDQMAVVATEEYRSVVFKEPRFVEYFRLATPELEFGRMNIGSRPSKRKPSGGIESLRAIPWIFSWTQTRFHLPVWLGFGAAFKHAIQKDSKNLQMLQEMYKTWPFFRVTIDLVEMVFAKGNPGIAALNDKLLVSEDLRPFGESLRANYEETKNYLLKIAGHKDLLEGDPYLKQGIRLRDPYITTLNVCQAYTLKRIRDPNYHVTLRPHISKEYAAEPSKPADELIHLNPTSEYAPGLEDTLILTMKGIAAGMQNTG
notes: full-length, 967 codons, N-terminal His6 tag kept (pET-1B His6 TEV LIC), E. coli BL21(DE3)
Km (purified protein [13]): 70 ± 10 µM
kcat (purified protein [13]): 47.99 ± 1.21 s⁻¹
kcat/Km (purified protein [13]): 690000 M⁻¹ s⁻¹
Km (purified protein [14]): 600 ± 50 µM
kcat (purified protein [14]): 47.99 ± 1.21 s⁻¹
kcat/Km (purified protein [14]): 80000 ± 5400 M⁻¹ s⁻¹

B2: Flaveria pringlei (C3) PEPC (Flaveria pringlei) (protein)
chain: MANRNLEKLASIDAQLRLLVPGKVSEDDKLIEYDALLLDKFLDILQDLHGEDLKEAVQECYELSAEYEGKHDPKKLEELGSVLTSLDPGDSIVIAKAFSHMLNLANLAEEVQIAYRRRIKLKRGDFADEANATTESDIEETFKKLVLKLNKSPEEVFDALKNQTVDLVLTAHPTQSVRRSLLQKHGRIRNCLAQLYAKDITPDDKQELDEALHREIQAAFRTDEIRRTPPTPQDEMRAGMSYFHETIWKGVPKFLRRVDTALKNIGINERVPYNAPLIQFSSWMGGDRDGKHPRVTPEVTRDVCLLARMMASNMYFSQIEDLMFEMSMWRCNSELRVRAEELYRTARRDVKHYIEFWKQVPPTEPYRVILGDVRDKLYNTRERSRHLLAHGISDIPEEAVYTNVEQFLEPLELCYRSLCDCGDRVIADGSLLDFLRQVSTFGLSLVKLDIRQESDRHTDVLDAITQHLEIGSYREWSEEKRQEWLLAELSGKRPLFGSDLPKTEEVKDVLDTFNVLAELPSDCFGAYIISMATSPSDVLAVELLQRECHVKHPLRVVPLFEKLADLEAAPAAMARLFSIDWYRNRIDGKQEVMIGYSDSGKDAGRFSAAWQLYKAQEEIIKVAKEFGVKLVIFHGRGGTVGRGGGPTHLAILSQPPDTIHGSLRVTVQGEVIEQSFGEEHLCFRTLQRFCAATLEHGMNPPISPRPEWRELMDQMAVVATEEYRSIVFKEPRFVEYFRLATPELEYGRMNIGSRPSKRKPSGGIESLRAIPWIFAWTQTRFHLPVWLGFGAAFKHAIKKDSKNLQMLQEMYKTWPFFRVTIDLVEMVFAKGDPGIAALNDKLLVSEDLWPFGESLRANYEETKDYLLKIAGHRDLLEGDPYLKQRIRLRDSYITTLNVCQAYTLKRIRDPNYHVTLRPHISKEYAAEPSKPADELIHLNPTSEYAPGLEDTLILTMKGIAAGMQNTG
notes: as for B1
Km (purified protein [13]): 100 ± 10 µM
kcat (purified protein [13]): 52.65 ± 1.37 s⁻¹
kcat/Km (purified protein [13]): 440000 M⁻¹ s⁻¹
Km (purified protein [15]): 60 ± 10 µM
kcat (purified protein [15]): 52.65 ± 1.37 s⁻¹
kcat/Km (purified protein [15]): 940000 ± 84900 M⁻¹ s⁻¹
